{"source": "patent US20030104507A1", "about": "“Method for detection of ATP” (priority 2001, published 2003)", "key": {"LucPpe2m146": {"system": "LucPpe2m146", "assay": "Stability of reagent composition with LucPpe2m146 and detergent (RT, pH 7.0)", "assay_type": "biochemical, Photuris pennsylvanica", "how_it_was_run": "(§1)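 Reagent with 50 μg/ml luciferase, luciferin, MgSO4, buffer and detergent at varying concentrations held at about 23° C; enzyme added just before first read. At timepoints, aliquots mixed 1:1 with media containing ATP and luminescence read immediately (0.5 s/well, triplicate); reaction half-lives and percent of original luminescence derived.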"}, "LucPpy": {"target": "T1, LucPpy (Photinus pyralis, UniProt P08659)", "T1 construct": "purchased Promega E170A", "assay": "Stability of reagent composition with LucPpy and detergent (RT, pH 7.0)", "assay_type": "biochemical", "settings": "for Average Relative Light Units / Percent of Luminescence Remaining: LucPpy", "how_it_was_run": "as §1"}}, "data": [{"smiles": "CCCCCCCCCCCC[N+](C)(C)CCCS(=O)(=O)[O-]", "note": "[Sulfobetaine 3-10, N-Dodecyl-N,N-dimethyl-3-ammonio-1-propanesulfonate]", "values": [{"measurement": "Average Relative Light Units", "setting": "LucPpe2m146; LucPpe2m146, 0.1%, 0.75 min (head r48)", "value": 16648.3, "unit": "rlu"}, {"measurement": "Percent of Luminescence Remaining", "setting": "LucPpe2m146; LucPpe2m146, 0.1%, 0.75 min (times of Table I r48)", "value": 100.00, "unit": "%"}, {"measurement": "Average Relative Light Units", "setting": "LucPpe2m146; LucPpe2m146, 0.1%, 30 min (head r48)", "value": 17003.0, "unit": "rlu"}, {"measurement": "Percent of Luminescence Remaining", "setting": "LucPpe2m146; LucPpe2m146, 0.1%, 30 min (times of Table I r48)", "value": 102.1, "unit": "%"}, {"measurement": "Average Relative Light Units", "setting": "LucPpe2m146; LucPpe2m146, 0.1%, 66 min (head r48)", "value": 17849.8, "unit": "rlu"}, {"measurement": "Percent of Luminescence Remaining", "setting": "LucPpe2m146; LucPpe2m146, 0.1%, 66 min (times of Table I r48)", "value": 107.2, "unit": "%"}, {"measurement": "Average Relative Light Units", "setting": "LucPpe2m146; LucPpe2m146, 0.1%, 123 min (head r48)", "value": 16610.13, "unit": "rlu"}, {"measurement": "Percent of Luminescence Remaining", "setting": "LucPpe2m146; LucPpe2m146, 0.1%, 123 min (times of Table I r48)", "value": 99.8, "unit": "%"}, {"measurement": "Average Relative Light Units", "setting": "LucPpe2m146; LucPpe2m146, 0.1%, 180 min (head r48)", "value": 17115.63, "unit": "rlu"}, {"measurement": "Percent of Luminescence Remaining", "setting": "LucPpe2m146; LucPpe2m146, 0.1%, 180 min (times of Table I r48)", "value": 102.8, "unit": "%"}, {"measurement": "Average Relative Light Units", "setting": "LucPpe2m146; LucPpe2m146, 0.1%, 238 min (head r48)", "value": 18131.37, "unit": "rlu"}, {"measurement": "Percent of Luminescence Remaining", "setting": "LucPpe2m146; LucPpe2m146, 0.1%, 238 min (times of Table I r48)", "value": 108.9, "unit": "%"}, {"measurement": "Average Relative Light Units", "setting": "LucPpe2m146; LucPpe2m146, 0.5%, 0.75 min (head r48)", "value": 13447.0, "unit": "rlu"}, {"measurement": "Percent of Luminescence Remaining", "setting": "LucPpe2m146; LucPpe2m146, 0.5%, 0.75 min (times of Table I r48)", "value": 100.00, "unit": "%"}, {"measurement": "Average Relative Light Units", "setting": "LucPpe2m146; LucPpe2m146, 0.5%, 30 min (head r48)", "value": 13597.97, "unit": "rlu"}, {"measurement": "Percent of Luminescence Remaining", "setting": "LucPpe2m146; LucPpe2m146, 0.5%, 30 min (times of Table I r48)", "value": 101.1, "unit": "%"}, {"measurement": "Average Relative Light Units", "setting": "LucPpe2m146; LucPpe2m146, 0.5%, 66 min (head r48)", "value": 14186.93, "unit": "rlu"}, {"measurement": "Percent of Luminescence Remaining", "setting": "LucPpe2m146; LucPpe2m146, 0.5%, 66 min (times of Table I r48)", "value": 105.5, "unit": "%"}, {"measurement": "Average Relative Light Units", "setting": "LucPpe2m146; LucPpe2m146, 0.5%, 123 min (head r48)", "value": 12982.20, "unit": "rlu"}, {"measurement": "Percent of Luminescence Remaining", "setting": "LucPpe2m146; LucPpe2m146, 0.5%, 123 min (times of Table I r48)", "value": 96.5, "unit": "%"}, {"measurement": "Average Relative Light Units", "setting": "LucPpe2m146; LucPpe2m146, 0.5%, 180 min (head r48)", "value": 14348.90, "unit": "rlu"}, {"measurement": "Percent of Luminescence Remaining", "setting": "LucPpe2m146; LucPpe2m146, 0.5%, 180 min (times of Table I r48)", "value": 106.7, "unit": "%"}, {"measurement": "Average Relative Light Units", "setting": "LucPpe2m146; LucPpe2m146, 0.5%, 238 min (head r48)", "value": 13958.2, "unit": "rlu"}, {"measurement": "Percent of Luminescence Remaining", "setting": "LucPpe2m146; LucPpe2m146, 0.5%, 238 min (times of Table I r48)", "value": 103.8, "unit": "%"}, {"measurement": "Average Relative Light Units", "setting": "LucPpe2m146; LucPpe2m146, 1.0%, 0.75 min (head r48)", "value": 16897.5, "unit": "rlu"}, {"measurement": "Percent of Luminescence Remaining", "setting": "LucPpe2m146; LucPpe2m146, 1.0%, 0.75 min (times of Table I r48)", "value": 100.00, "unit": "%"}, {"measurement": "Average Relative Light Units", "setting": "LucPpe2m146; LucPpe2m146, 1.0%, 30 min (head r48)", "value": 16754.97, "unit": "rlu"}, {"measurement": "Percent of Luminescence Remaining", "setting": "LucPpe2m146; LucPpe2m146, 1.0%, 30 min (times of Table I r48)", "value": 102.0, "unit": "%"}, {"measurement": "Average Relative Light Units", "setting": "LucPpe2m146; LucPpe2m146, 1.0%, 66 min (head r48)", "value": 7036.0, "unit": "rlu"}, {"measurement": "Percent of Luminescence Remaining", "setting": "LucPpe2m146; LucPpe2m146, 1.0%, 66 min (times of Table I r48)", "value": 106.0, "unit": "%"}, {"measurement": "Average Relative Light Units", "setting": "LucPpe2m146; LucPpe2m146, 1.0%, 123 min (head r48)", "value": 6653.67, "unit": "rlu"}, {"measurement": "Percent of Luminescence Remaining", "setting": "LucPpe2m146; LucPpe2m146, 1.0%, 123 min (times of Table I r48)", "value": 100.3, "unit": "%"}, {"measurement": "Average Relative Light Units", "setting": "LucPpe2m146; LucPpe2m146, 1.0%, 180 min (head r48)", "value": 7358.44, "unit": "rlu"}, {"measurement": "Percent of Luminescence Remaining", "setting": "LucPpe2m146; LucPpe2m146, 1.0%, 180 min (times of Table I r48)", "value": 110.9, "unit": "%"}, {"measurement": "Average Relative Light Units", "setting": "LucPpe2m146; LucPpe2m146, 1.0%, 238 min (head r48)", "value": 6948.05, "unit": "rlu"}, {"measurement": "Percent of Luminescence Remaining", "setting": "LucPpe2m146; LucPpe2m146, 1.0%, 238 min (times of Table I r48)", "value": 104.7, "unit": "%"}, {"measurement": "Half-life of Luminescence Activity", "setting": "LucPpy; Common firefly luciferase (P. pyralis), conc. 0.500", "value": "no activity"}, {"measurement": "Average Relative Light Units", "setting": "LucPpy; 0.1%, 0.75 min (head r12)", "value": 3291.41, "unit": "rlu"}, {"measurement": "Percent of Luminescence Remaining", "setting": "LucPpy; 0.1%, 0.75 min (times of Table I r12)", "value": 100.00, "unit": "%"}, {"measurement": "Average Relative Light Units", "setting": "LucPpy; 0.1%, 7.5 min (head r12)", "value": 3178.07, "unit": "rlu"}, {"measurement": "Percent of Luminescence Remaining", "setting": "LucPpy; 0.1%, 7.5 min (times of Table I r12)", "value": 95.8, "unit": "%"}, {"measurement": "Average Relative Light Units", "setting": "LucPpy; 0.1%, 20.5 min (head r12)", "value": 3262.17, "unit": "rlu"}, {"measurement": "Percent of Luminescence Remaining", "setting": "LucPpy; 0.1%, 20.5 min (times of Table I r12)", "value": 99.1, "unit": "%"}, {"measurement": "Average Relative Light Units", "setting": "LucPpy; 0.1%, 59 min (head r12)", "value": 3074.49, "unit": "rlu"}, {"measurement": "Percent of Luminescence Remaining", "setting": "LucPpy; 0.1%, 59 min (times of Table I r12)", "value": 93.4, "unit": "%"}, {"measurement": "Average Relative Light Units", "setting": "LucPpy; 0.1%, 90 min (head r12)", "value": 3066.29, "unit": "rlu"}, {"measurement": "Percent of Luminescence Remaining", "setting": "LucPpy; 0.1%, 90 min (times of Table I r12)", "value": "93.", "unit": "%"}, {"measurement": "Average Relative Light Units", "setting": "LucPpy; 0.5%, 0.75 min (head r12)", "value": 737.788, "unit": "rlu"}, {"measurement": "Percent of Luminescence Remaining", "setting": "LucPpy; 0.5%, 0.75 min (times of Table I r12)", "value": 100.00, "unit": "%"}, {"measurement": "Average Relative Light Units", "setting": "LucPpy; 0.5%, 7.5 min (head r12)", "value": 0.084, "unit": "rlu"}, {"measurement": "Average Relative Light Units", "setting": "LucPpy; 0.5%, 20.5 min (head r12)", "value": 0.037, "unit": "rlu"}, {"measurement": "Average Relative Light Units", "setting": "LucPpy; 1.0%, 0.75 min (head r12)", "value": 0.024, "unit": "rlu"}, {"measurement": "Average Relative Light Units", "setting": "LucPpy; 1.0%, 7.5 min (head r12)", "value": 0.000, "unit": "rlu"}]}]}
